Test results published in patent US20250333398A1, “MONOARYL AND HETARYL SUBSTITUTED INDAZOLES AND BENZIMIDAZOLES AS STING ANTAGONISTS AND THE USE THEREOF AS MEDICAMENT” (Boehringer Ingelheim International GmbH, priority 2024, published 2025).

System: T1, STING
T1 construct: from tissue; host or cells: human whole blood from healthy donors
Experiment: Human whole blood assay (HWBA), cGAMP-stimulated IFNα2α production
Type: cell-based
Details: human whole blood stimulated by cGAMP
Method: For the detection of STING inhibition in physiological environment human whole blood was stimulated by the cyclic dinucleotide cGAMP. Pathway activity was monitored by measuring the IFNα2α production.
Assay method: Compounds were delivered as 10 mM DMSO solution and serial diluted and transferred to the 96-well Cell culture Plate (Corning #3595), prefilled with 20 μl OptiMEM (Gibco #11058-021) in each well, using an Echo acoustic dispenser. Typically, 8 concentrations were used with the highest concentration at 10 μM in the final assay volume followed by ^˜1:5 dilution steps. DMSO concentration was set to 0.1% in the final assay volume. The 96 well assay plate contained 9 test compounds, a reference compound and DMSO in control wells.
Collection of human whole blood from 3 or more healthy donors (male or female, no medication for 7 days, exception contraceptive and thyroxine) as Na-citrate blood (e.g. 3.8% in Monovettes from Sarstedt) is conducted in parallel. Whole blood was kept at room temperature for a maximum of 3 hours after collection until use in the assay.
160 μl of the whole blood samples were transferred to each well of the 96-well assay plates filled with compound/OptiMEM. All assay plates are prepared as duplicates with blood from different donors. Blood plates were kept at room temperature for 60 minutes and continuous shaking with 450 rpm, covered with the lid, but not sealed.
A 10× cGAMP assay solution was diluted from a 2 mM stock solution in 1×HBSS immediately before use at room temperature. 20 μl of the 10× cGAMP/HBSS were added to all compound and all high control wells, whereas HBSS only was added to all low control wells.
After covering assay plates with aera seals and the lid, blood plates were kept at room temperature for 30 minutes and continuous shaking with 450 rpm, followed by an overnight incubation of 22 h at 37° C. in the incubator, without shaking.
For the detection of IFNα-2α in human plasma, the biotinylated capture antibody (Antibody set IFNA2, Meso Scale Diagnostics #B21VH-3, including coating and capture antibody) was diluted 1:17.5 in Diluent 100 (Meso Scale Diagnostics #R50AA-4, according to the manufacturer. U-Plex MSD GOLD 96-well Small Spot Streptavidin SECTOR Plates (Meso Scale Diagnostics #L45SA-5) were coated with 25 μl diluted capture antibody. Coated plates were incubated for 60 min at room temperature under continuous shaking at 700 rpm. MSD IFNα-2α plates were washed three times with 150 μl wash buffer (1×HBSS, 0.05% Tween).
After blocking the plates with 100 μl block solution/well (1×HBSS with 0.2% Tween, 2% BSA) for 60 min at room temperature and continuous shaking at 700 rpm, plates were emptied as dry as possible by dumping just before continuing with the human plasma. Whole Blood assay plates were centrifuged at 1600 rpm for 10 minutes. 25 μl of supernatant was transferred with a pipetting robotics from each whole blood plate to the corresponding IFNα-2α plate. Plates were sealed with microplate seals and kept at room temperature again under continuous shaking at 700 rpm for two hours. Next MSD IFNα-2α plates were washed three times with 150 μl wash buffer (1×HBSS, 0.05% Tween), before adding 25 μl MSD SULFO-TAG IFNα-2α Antibody solution (1:100 diluted in Diluent 3 (Meso Scale Diagnostics #R50AP-2) to each well of the plates. Afterwards plates were sealed with microplate seals and kept at room temperature again under continuous shaking at 700 rpm for two hours. Finally, MSD IFNα-2α plates were washed three times with 150 μl wash buffer (1×HBSS, 0.05% Tween). 150 μl 2× Read buffer was added to each well and plates were immediately measured with the MSD Sector S600 Reader using the vendor barcode.
Data evaluation and calculation: For data evaluation and calculation, % control calculation of each well was based on the mean of high (cGAMP stimulated control) and mean of low (unstimulated control) controls by using the following formula: […]

SMILES	IC50 [nM]
CC[P@@](C)(=O)c1ccc(-c2nc(-c3cccc4nn(-c5cn(C6CC6)nc5OC)cc34)c(C3CC3)n2C)c(OC(F)(F)F)c1 [Example 13, 4-(5-cyclopropyl-2-{4-[(R)-ethyl(methyl)phosphoryl]-2-(trifluoromethoxy)phenyl}-1-methyl-1H-imidazol-4-yl)-2-(1-cyclopropyl-3-methoxy-1H-pyrazol-4-yl)-2H-indazole]	38
CC[P@](C)(=O)c1ccc(-c2nc(-c3cccc4nn(-c5cc(C6CC6)n(C)n5)cc34)c(C3CC3)n2C)c(OC(F)(F)F)c1 [Example 19, 2-(5-cyclopropyl-1-methyl-1H-pyrazol-3-yl)-4-(5-cyclopropyl-2-{4-[(S)-ethyl(methyl)phosphoryl]-2-(trifluoromethoxy)phenyl}-1-methyl-1H-imidazol-4-yl)-2H-indazole]	140
Cn1nc(-n2cc3c(-c4nc(-c5ccc(P(C)(C)=O)cc5OC(F)(F)F)n(C)c4C4CC4)cccc3n2)cc1C(F)F [Example 2, 4-{5-cyclopropyl-2-[4-(dimethylphosphoryl)-2-(trifluoromethoxy)phenyl]-1-methyl-1H-imidazol-4-yl}-2-[5-(difluoromethyl)-1-methyl-1H-pyrazol-3-yl]-2H-indazole]	210
COCc1cc(C(N)=O)ccc1-c1nc(-c2cccc3nn(-c4cn(C5CC5)nc4OC)cc23)c(C2CC2)n1C [Example 12, 4-{5-cyclopropyl-4-[2-(1-cyclopropyl-3-methoxy-1H-pyrazol-4-yl)-2H-indazol-4-yl]-1-methyl-1H-imidazol-2-yl}-3-(methoxymethyl)benzamide]	840
Cn1nc(-n2cc3c(-c4nc(-c5ccc(P(C)(C)=O)cc5OC(F)(F)F)n(C)c4C4CC4)cccc3n2)cc1C(F)(F)F [Example 20, 4-{5-cyclopropyl-2-[4-(dimethylphosphoryl)-2-(trifluoromethoxy)phenyl]-1-methyl-1H-imidazol-4-yl}-2-[1-methyl-5-(trifluoromethyl)-1H-pyrazol-3-yl]-2H-indazole]	180
CC[P@](C)(=O)c1ccc(-c2nc(-c3cccc4nn(-c5cn(C6CC6)nc5OC)cc34)c(C3CC3)n2C)c(OC(F)(F)F)c1 [Example 14, 4-(5-cyclopropyl-2-{4-[(S)-ethyl(methyl)phosphoryl]-2-(trifluoromethoxy)phenyl}-1-methyl-1H-imidazol-4-yl)-2-(1-cyclopropyl-3-methoxy-1H-pyrazol-4-yl)-2H-indazole]	11
CC[P@](C)(=O)c1ccc(-c2nc(-c3cccc4[nH]c(-c5cc(C(F)(F)F)n(C)n5)nc34)c(C3CC3)n2C)c(OC(F)(F)F)c1 [Example 18, 4-(5-cyclopropyl-2-{4-[(S)-ethyl(methyl)phosphoryl]-2-(trifluoromethoxy)phenyl}-1-methyl-1H-imidazol-4-yl)-2-[1-methyl-5-(trifluoromethyl)-1H-pyrazol-3-yl]-1H-1,3-benzodiazole]	87
CCP(=O)(CC)c1ccc(-c2nc(-c3cccc4nn(-c5cc(C(F)(F)F)n(C)n5)cc34)c(C3CC3)n2C)c(OC(F)(F)F)c1 [Example 17, 4-{5-cyclopropyl-2-[4-(diethylphosphoryl)-2-(trifluoromethoxy)phenyl]-1-methyl-1H-imidazol-4-yl}-2-[1-methyl-5-(trifluoromethyl)-1H-pyrazol-3-yl]-2H-indazole]	89
COc1nn(C2CC2)cc1-n1cc2c(-c3nc(-c4ccc(C(N)=O)cc4OCC(F)F)n(C)c3C3CC3)cccc2n1 [Example 6, 4-{5-cyclopropyl-4-[2-(1-cyclopropyl-3-methoxy-1H-pyrazol-4-yl)-2H-indazol-4-yl]-1-methyl-1H-imidazol-2-yl}-3-(2,2-difluoroethoxy)benzamide]	58
COc1nn(CC(C)(C)O)cc1-n1cc2c(-c3nc(-c4ccc(C(N)=O)cc4OC(F)(F)F)n(C)c3C3CC3)cccc2n1 [Example 11, 4-(5-cyclopropyl-4-{2-[1-(2-hydroxy-2-methylpropyl)-3-methoxy-1H-pyrazol-4-yl]-2H-indazol-4-yl}-1-methyl-1H-imidazol-2-yl)-3-(trifluoromethoxy)benzamide]	880
CC[P@](C)(=O)c1ccc(-c2nc(-c3cccc4nn(-c5cc(C(F)F)n(C)n5)cc34)c(C3CC3)n2C)c(OC(F)(F)F)c1 [Example 7, 4-(5-cyclopropyl-2-{4-[(S)-ethyl(methyl)phosphoryl]-2-(trifluoromethoxy)phenyl}-1-methyl-1H-imidazol-4-yl)-2-[5-(difluoromethyl)-1-methyl-1H-pyrazol-3-yl]-2H-indazole]	57
CCOc1nn(C)cc1-n1cc2c(-c3nc(-c4ccc(C(N)=O)cc4OC(F)(F)F)n(C)c3C3CC3)cccc2n1 [Example 4, 4-{5-cyclopropyl-4-[2-(3-ethoxy-1-methyl-1H-pyrazol-4-yl)-2H-indazol-4-yl]-1-methyl-1H-imidazol-2-yl}-3-(trifluoromethoxy)benzamide]	95
CC[P@](C)(=O)c1ccc(-c2nc(-c3cccc4nn(-c5cc(C(F)(F)F)n(C)n5)cc34)c(C3CC3)n2C)c(OC(F)(F)F)c1 [Example 10, 4-(5-cyclopropyl-2-{4-[(S)-ethyl(methyl)phosphoryl]-2-(trifluoromethoxy)phenyl}-1-methyl-1H-imidazol-4-yl)-2-[1-methyl-5-(trifluoromethyl)-1H-pyrazol-3-yl]-2H-indazole]	78
COc1nn(C2CC2)cc1-n1cc2c(-c3nc(-c4ccc(C(=O)N(C)C)cc4OC(F)(F)F)n(C)c3C3CC3)cccc2n1 [Example 15, 4-{5-cyclopropyl-4-[2-(1-cyclopropyl-3-methoxy-1H-pyrazol-4-yl)-2H-indazol-4-yl]-1-methyl-1H-imidazol-2-yl}-N,N-dimethyl-3-(trifluoromethoxy)benzamide]	110
Cn1nc(-n2cc3c(-c4nc(-c5ccc(C(N)=O)cc5OC(F)(F)F)n(C)c4C4CC4)cccc3n2)cc1C(F)(F)F [Example 8, 4-(5-cyclopropyl-1-methyl-4-{2-[1-methyl-5-(trifluoromethyl)-1H-pyrazol-3-yl]-2H-indazol-4-yl}-1H-imidazol-2-yl)-3-(trifluoromethoxy)benzamide]	80
COc1nn(C)cc1-n1cc2c(-c3nc(-c4ccc(C(=O)N(C)C)cc4OC(F)(F)F)n(C)c3C3CC3)cccc2n1 [Example 3, 4-{5-cyclopropyl-4-[2-(3-methoxy-1-methyl-1H-pyrazol-4-yl)-2H-indazol-4-yl]-1-methyl-1H-imidazol-2-yl}-N,N-dimethyl-3-(trifluoromethoxy)benzamide]	2600
COc1nn(C2CC2)cc1-n1cc2c(-c3nc(-c4ccc(C(N)=O)cc4OC(F)(F)F)n(C)c3C3CC3)cccc2n1 [Example 16, 4-{5-cyclopropyl-4-[2-(1-cyclopropyl-3-methoxy-1H-pyrazol-4-yl)-2H-indazol-4-yl]-1-methyl-1H-imidazol-2-yl}-3-(trifluoromethoxy)benzamide]	35
COc1nn(C2CC2)cc1-n1cc2c(-c3nn(-c4ccc(P(C)(C)=O)cc4C)c(C)c3C(C)C)cccc2n1 [Example 9, 2-(1-cyclopropyl-3-methoxy-1H-pyrazol-4-yl)-4-{1-[4-(dimethylphosphoryl)-2-methylphenyl]-5-methyl-4-(propan-2-yl)-1H-pyrazol-3-yl}-2H-indazole]	1500
